The source of these data is patent US20100286186A1, “NOVEL DICARBOXYLIC ACID LINKED AMINO ACID AND PEPTIDE PRODRUGS OF OPIOIDS AND USES THEREOF” (Shire LLC, priority 2009, published 2010).

Data set [1] in a line: Plasma pharmacokinetics of meptazinol dicarboxylate linked prodrugs after oral gavage to dogs. Conditions: 1 mg meptazinol base equivalents/kg; for systemic levels of meptazinol versus expected Cmax after the drug itself / Dog Cmax (plasma meptazinol) / Dog Cmax (plasma prodrug levels, in brackets) / Cmax: dog; for Dog Cmax (plasma meptazinol) / Dog Cmax (plasma prodrug levels, in brackets) / Cmax: oral gavage of prodrug; for Dog Cmax (plasma meptazinol): meptazinol level; for Dog Cmax (plasma prodrug levels, in brackets) / Cmax: prodrug level, BLQ = below 0.5 ng/mL; for Cmax: beagle, plasma, read-out: Dog Cmax (plasma prodrug levels, in brackets). The format is in vivo, dog.

Data set [2] in a line: Stability of meptazinol dicarboxylate bridged amino acid prodrugs in simulated gastric and intestinal juice and pH 7.4 buffer. It counts as physicochemical. Conditions: for 2 h stability in pH7.4 buffer (37° C.), Conversion to meptazinol: pH 7.4 buffer. An excerpt:
Initially the inherent chemical and biological stability of various dicarboxylate bridged amino acid prodrugs of meptazinol, was investigated under the conditions prevailing in the GI tract. Premature hydrolysis of the prodrug in the gut lumen prior to absorption would reduce the opportunity for transient protection of the drug during its passage though the liver and the desired reduction in first pass metabolism.
The remaining concentrations of the prodrug (and also drug released) were then assayed by HPLC. Additionally their chemical stability was evaluated in pH 7.4 buffer for 2 h 37° C.

A short description of data set [3]: Plasma pharmacokinetics of meptazinol dicarboxylate linked prodrugs after oral gavage to cynomolgus monkeys. The format is in vivo, cynomolgus monkey. Conditions: 1 mg meptazinol base equivalents/kg; for Monkey Cmax (plasma meptazinol): meptazinol level; for improvement in systemic levels of meptazinol: monkey, oral gavage.
A short description of data set [4]: In vitro stability of dicarboxylate amino acid ester prodrugs in simulated gastric and intestinal juice, distilled water and pH 10 buffer (HPLC). To be noted: for Simulated gastric fluid (pH 1.1): % remaining after 2 h/37° C.: pH 1.1, 2 h; for Distilled water (pH 5.9): % remaining after 2 h/20° C.: pH 5.9, 2 h; for Simulated intestinal fluid (pH 6.8): % remaining after 2 h/37° C.: pH 6.8, 2 h; for pH 10.0 buffer: % remaining after 2 h/20° C.: pH 10.0, 2 h.

Data set [5] in a line: Comparative oral bioavailability of oxycodone from various dicarboxylate bridged amino acid prodrugs in dogs (nine-way crossover). It counts as in vivo, dog. To be noted: 1 mg/kg oxycodone free base; for T50% Cmax of oxycodone / Cmax of oxycodone / AUC0-t of oxycodone: mean (±sd); for AUC0-t of oxycodone: t = last quantifiable time point.
[6] abbreviates: cynomolgus monkey, oral gavage of prodrug.
Setting [7] is: cynomolgus monkey, oral gavage of prodrug, prodrug level, BLQ = below 0.5 ng/mL.

Molecules are shown by their SMILES.

Regarding `CCC1(c2cccc(OC(=O)CC(C)(C)CC(=O)Nc3ccc(C(=O)O)cc3)c2)CCCCN(C)C1` (stereo not drawn) [Meptazinol [3,3-dimethyl-glutaryl-PABA]ester], the “systemic levels of meptazinol versus expected Cmax after the drug itself” value in data set [1] (oral gavage) is “improved systemic levels of meptazinol”. In data set [1], the “Dog Cmax (plasma meptazinol)” value stood at 9.4 ng/mL and the “Dog Cmax (plasma prodrug levels, in brackets)” value was 25 ng/mL. In data set [2], the “2 h stability in pH7.4 buffer (37° C.), Conversion to meptazinol” value (from here on “2 h stability in pH7.4 buffer”) is recorded as 93%; the “1 h stability in simulated gastric fluid (37° C.), Conversion to meptazinol” value (“1 h stability in simulated gastric fluid” below) is on record as 1%; the “2 h stability in simulated intestinal fluid (37° C.), Conversion to meptazinol” value was 5%. Also, the “Monkey Cmax (plasma meptazinol)” value in data set [3] (setting [6]) is 1.3 ng/mL. The “Monkey Cmax (plasma prodrug levels, in brackets)” value in data set [3] (setting [7]) was “BLQ”. Moreover, the “improvement in systemic levels of meptazinol” value in data set [3] is given as “not seen in the monkey”.

Consider `CCC1(c2cccc(OC(=O)C=CC(=O)Nc3ccc(C(=O)O)cc3)c2)CCCCN(C)C1` (stereo not drawn) [Meptazinol [fumaryl-PABA] ester], for which, in data set [1], the “Dog Cmax (plasma meptazinol)” value is given as 1.5 ng/mL and the “Dog Cmax (plasma prodrug levels, in brackets)” value is given as “BLQ”. In addition, in data set [2], the “2 h stability in pH7.4 buffer” value is given as 47%; the “1 h stability in simulated gastric fluid” value is recorded as 2%; the “2 h stability in simulated intestinal fluid (37° C.), Conversion to meptazinol” value was 6%. Besides, in data set [3] (setting [6]), the “Monkey Cmax (plasma meptazinol)” value is 1.4 ng/mL. In data set [3] (setting [7]), the “Monkey Cmax (plasma prodrug levels, in brackets)” value is “BLQ”.

Regarding `CCC1(c2cccc(OC(=O)CCCC(=O)N[C@H](C(=O)O)C(C)C)c2)CCCCN(C)C1` (stereo partly drawn) [Meptazinol [glutaryl-(S)-valine] ester], the “systemic levels of meptazinol versus expected Cmax after the drug itself” value in data set [1] (oral gavage) is “improved systemic levels of meptazinol”. Moreover, in data set [1], the “Dog Cmax (plasma prodrug levels, in brackets)” value is on record as 2.8 ng/mL. Besides, the “improvement in systemic levels of meptazinol” value in data set [3] was “not seen in the monkey”.

Consider `CCC1(c2cccc(OC(=O)CCCC(=O)Nc3ccc(C(=O)O)cc3)c2)CCCCN(C)C1` (stereo not drawn) [Meptazinol [glutaryl-PABA] ester], for which, in data set [1], the “Dog Cmax (plasma meptazinol)” value is reported as 3.4 ng/mL and the “Dog Cmax (plasma prodrug levels, in brackets)” value is recorded as 6.7 ng/mL. Moreover, in data set [2], the “2 h stability in pH7.4 buffer” value is reported as 80%; the “1 h stability in simulated gastric fluid” value is listed as 5%; the “2 h stability in simulated intestinal fluid (37° C.), Conversion to meptazinol” value is on record as 6%. The “Monkey Cmax (plasma meptazinol)” value in data set [3] (setting [6]) is reported as 1.5 ng/mL. The “Monkey Cmax (plasma prodrug levels, in brackets)” value in data set [3] (setting [7]) came out at 1.7 ng/mL.

On to `CCC1(c2cccc(OC(=O)/C=C\C(=O)N[C@H](C(=O)O)C(C)C)c2)CCCCN(C)C1` (stereo partly drawn) [Meptazinol [malearyl-(S)-valine] ester], for which the Cmax (in general, the maximum level reached in the sampled fluid or tissue) in data set [1] was determined as 6 ng/mL. In data set [3] (setting [7]), the “Monkey Cmax (plasma prodrug levels, in brackets)” value is listed as “BLQ”.

`CCC1(c2cccc(OC(=O)C(C)(C)CC(=O)N[C@H](C(=O)O)C(C)C)c2)CCCCN(C)C1` (stereo partly drawn) [Meptazinol-[2,2-dimethylsuccinyl-(S)-valine] ester]: in data set [1], the “Dog Cmax (plasma meptazinol)” value worked out at 0.9 ng/mL and the “Dog Cmax (plasma prodrug levels, in brackets)” value amounted to 25 ng/mL. Also, in data set [2], the “2 h stability in pH7.4 buffer” value is listed as 2% and the “2 h stability in simulated intestinal fluid (37° C.), Conversion to meptazinol” value was 3%. Besides, in data set [3] (setting [6]), the “Monkey Cmax (plasma meptazinol)” value worked out at 0.4 ng/mL. Also, the “Monkey Cmax (plasma prodrug levels, in brackets)” value in data set [3] (setting [7]) is 100 ng/mL.

For `CCC1(c2cccc(OC(=O)CC(C)(C)CC(=O)N[C@H](C(=O)O)C(C)C)c2)CCCCN(C)C1` (stereo partly drawn) [Meptazinol-[3,3-dimethyl-glutaryl-(S)-valine] ester], the Cmax came to 116 ng/mL in data set [1] and 43 ng/mL in data set [3] (plasma, cynomolgus monkey, oral gavage of prodrug, prodrug level, BLQ = below 0.5 ng/mL, read-out: Monkey Cmax (plasma prodrug levels, in brackets)). Further, the “systemic levels of the prodrug” value in data set [1] (oral gavage) is “good systemic levels of the prodrug”.

Take `CCC1(c2cccc(OC(=O)CC(C)(C)CC(=O)NCC(=O)O)c2)CCCCN(C)C1` (stereo not drawn) [Meptazinol-[3,3-dimethylglutaryl-glycine] ester]: in data set [1], the “Dog Cmax (plasma meptazinol)” value was determined as 0.5 ng/mL and the “Dog Cmax (plasma prodrug levels, in brackets)” value was determined as 29 ng/mL. In data set [2], the “2 h stability in pH7.4 buffer” value is 2%; the “1 h stability in simulated gastric fluid” value is recorded as 4%; the “2 h stability in simulated intestinal fluid (37° C.), Conversion to meptazinol” value was 4%. In data set [3] (setting [6]), the “Monkey Cmax (plasma meptazinol)” value is 1.1 ng/mL. Besides, the “Monkey Cmax (plasma prodrug levels, in brackets)” value in data set [3] (setting [7]) amounted to 18 ng/mL.

With `CCC1(c2cccc(OC(=O)/C=C/C(=O)N[C@H](C(=O)O)C(C)C)c2)CCCCN(C)C1` (stereo partly drawn) [Meptazinol-[fumaryl-(S)-valine] ester], the “Dog Cmax (plasma prodrug levels, in brackets)” value in data set [1] is on record as “BLQ”. Moreover, the “Monkey Cmax (plasma prodrug levels, in brackets)” value in data set [3] (setting [7]) was “BLQ”.

Regarding `COc1ccc2c3c1O[C@H]1C(OC(=O)CCCC(=O)N[C@H](C(=O)O)C(C)C)=CC[C@@]4(O)[C@@H](C2)N(C)CC[C@]314` [Oxycodone-Glutaryl-Val Enol Ester, oxycodone-[glutaryl-(S)-valine] enol ester], in data set [4], the “Simulated gastric fluid (pH 1.1): % remaining after 2 h/37° C.” value is listed as 98%, the “Distilled water (pH 5.9): % remaining after 2 h/20° C.” value (from here on “Distilled water (pH 5.9): % remaining”) is 100%, the “Simulated intestinal fluid (pH 6.8): % remaining after 2 h/37° C.” value was 87% and the “pH 10.0 buffer: % remaining after 2 h/20° C.” value (from here on “pH 10.0 buffer: % remaining”) was 75%. Further, the “T50% Cmax of oxycodone” value in data set [5] was 2.9 (±0.3) h.

Consider `CC[C@H](C)[C@H](NC(=O)CCC(=O)OC1=CC[C@@]2(O)[C@H]3Cc4ccc(OC)c5c4[C@@]2(CCN3C)[C@H]1O5)C(=O)O` [Oxycodone-Succinyl-Ile Enol Ester, oxycodone-[succinyl-(S)-isoleucine] enol ester], for which, in data set [4], the “Simulated gastric fluid (pH 1.1): % remaining after 2 h/37° C.” value was 98%, the “Distilled water (pH 5.9): % remaining” value is 100%, the “Simulated intestinal fluid (pH 6.8): % remaining after 2 h/37° C.” value is recorded as 91% and the “pH 10.0 buffer: % remaining” value was 66%. In data set [5], the “F % (absolute oral bioavailability of oxycodone)” value was found to be 36.0%, the Cmax of oxycodone is on record as 57.9 (±8.7) ng/mL, the “T50% Cmax of oxycodone” value is reported as 1.6 (±0.4) h and the AUC0-t of oxycodone is recorded as 130.6 (±25.6) h. * ng/mL.

Take `COc1ccc2c3c1OC1C(OC(=O)CCC(=O)N[C@@H](CC(C)C)C(=O)O)=CC[C@@]4(O)[C@@H](C2)N(C)CC[C@]314` (stereo partly drawn) [Oxycodone-Succinyl-Leu Enol Ester, oxycodone-[succinyl-(S)-leucine]enol ester]: in data set [4], the “Simulated gastric fluid (pH 1.1): % remaining after 2 h/37° C.” value is 98%, the “Distilled water (pH 5.9): % remaining” value is 100%, the “Simulated intestinal fluid (pH 6.8): % remaining after 2 h/37° C.” value was 78% and the “pH 10.0 buffer: % remaining” value is reported as 68%. In data set [5], the “F % (absolute oral bioavailability of oxycodone)” value came out at 39.3%, the Cmax of oxycodone is on record as 60.9 (±15.0) ng/mL, the “T50% Cmax of oxycodone” value was 1.9 (±0.2) h and the AUC0-t of oxycodone is given as 142.5 (±28.4) h. * ng/mL.

In the case of `COc1ccc2c3c1OC1C(OC(=O)CCC(=O)N[C@@H](CCSC)C(=O)O)=CC[C@@]4(O)[C@@H](C2)N(C)CC[C@]314` (stereo partly drawn) [Oxycodone-Succinyl-Met Enol Ester, oxycodone-[succinyl-(S)-methionine]enol ester], in data set [4], the “Simulated gastric fluid (pH 1.1): % remaining after 2 h/37° C.” value is on record as 99%, the “Distilled water (pH 5.9): % remaining” value is 100%, the “Simulated intestinal fluid (pH 6.8): % remaining after 2 h/37° C.” value is 84% and the “pH 10.0 buffer: % remaining” value is recorded as 58%. For the same compound, in data set [5], the “F % (absolute oral bioavailability of oxycodone)” value is 49.8%, the Cmax of oxycodone is on record as 68.3 (±21.1) ng/mL, the “T50% Cmax of oxycodone” value is on record as 2.3 (±0.8) h and the AUC0-t of oxycodone is 180.6 (±37.7) h. * ng/mL.
